“Also recorded” adds a separate entry of the source.
Legend:
THP-1 cells = assay: Chemotaxis assay in modified Boyden chambers; assay type: cell-based, human; details: for chemotactic response of THP-1 cells: Boyden chamber, 90 minutes, migration as percent of control, over the concentration range analyzed; for concentration giving maximal chemotactic response: THP-1 cells, FIG. 4 panels A and C; for concentration at which very potent chemotactic activity is seen: human THP-1 monocytoid cells (and murine LB6 fibroblastic cells)
Description: FIG. 3. […] For each set of experiments, migration toward the assay medium served as control (random cell migration) and is referred to as 100% migration. All experiments were performed in triplicate; the number of cells counted per high power field (ten fields for each condition) is expressed as percent of the control values. The proteins were purified as described in the Methods section. Data points represent the mean of three independent experiments (+SEM). The constructs used are depicted in FIG. 2.
Chemotaxis analysis were performed using modified Boyden chambers containing polyvinylpyrrolidone polycarbonate filters (13 mm diameter, […]) coated with collagen type I ([…] in PBS pH 7.4). The coated filters were washed with medium supplemented with 0.2% bovine serum albumin (BSA) and then placed in the Boyden apparatus. After acid wash, 2×10^5 THP-1 cells suspended in serum-free medium were added above the filter in the Boyden chamber. Purified mutants were diluted in serum-free medium at the indicated concentrations and added below the filter in the lower chamber. The chambers were incubated in a humidified incubafor at 37° C. in 5% CO2 in air for 90 minutes. Filters were removed, the upper surface scraped free of cells, fixed in methanol and stained with crystal violet. For each set of experiments, migration toward the assay medium served as control (random cell migration) and is referred to as 100% migration. All experiments were performed in triplicate; data are reported as number of cells counted for high power field (ten fields for each condition) and expressed as percentage of the control values. Data points represent the mean of three independent experiments (+SEM). When cells of the fibroblast-type or cancer cells were employed for the assay, the time required for migration was higher and the Boyden chamber were usually incubated overnight.

p56/p59hck = p56/p59hck immunoprecipitation and in vitro kinase assay after treatment of THP-1 cells; assay type: cell-based, human
Description: FIG. 5. In this figure, the stimulating effect of peptide 1 on the activity of Hck kinase of THP-1 cells is shown. THP-1 cells were metabolically labelled with [35S]-TransLabel, acid washed, and either mock-treated or treated with 0.1 nM peptide 1 (AVTYSRSRYLEC, (SEQ ID NO:1)) for the indicated time at 37° C. Radiolabelled cell lysates were immunoprecipitated (Resnati et al., 1996) using an affinity-purified rabbit polyclonal anti-p56/p59hck antibody.
(A) An aliquot from each immunoprecipitate was directly analyzed by SDS-PAGE to control that equal amount of p56/p59hck were present during in vitro kinase assay.
(B) The remainder of each immunoprecipitate was subjected to in vitro kinase assay in presence of […] of [g-32P]ATP (˜3000 Ci/mmol, Amersham) and […] rabbit muscle enolase for 5 minutes at room temperature. Eluates were thus analyzed by SDS-PAGE autobiography (7.5% acrylamide).
The mixture of chymotrypsin fragments of suPAR, like the uPA/uPAR interaction, induces chemotaxis by transiently activating the p56/p59hck protein kinase (Resnati et al., 1996). If human uPAR-related peptides containing the SRSRY (SEQ ID NO:7) motif induce a chemotactic response on THP-1 cells though the same mechanism exploited by the uPA/uPAR interaction (i.e. by binding to the unidentified adaptor), they should also activate p56/p59hck. THP-1 cells were metabolically labelled with [35S]-TransLabel, acid washed, and either mock-treated or treated with 0.1 nM peptide 1 (AVTYSRSRYLEC (SEQ ID NO:1)) for the indicated time at 37° C. Radiolabelled cell lysates were immunoprecipitated (Resnati et al.,1996) using an affinity-purified rabbit polyclonal anti-p56/p59hck antibody. An aliquot from each immunoprecipitate was directly analyzed by SDS-PAGE to control that equal amount of p56/p59hck were present during in vitro kinase assay (FIG. 5, panel A). The remainder of each immunoprecipitate was subjected to in vitro kinase assay in presence of […] of [g-32P)]ATP (˜3000 Ci/mmol, Amersham) and […] rabbit muscle enolase (substrate) for 5 minutes at room temperature. Eluates were thus analyzed by SDS-PAGE autobiography (7.5% acrylamide). […] The effect was very rapid, since p56/pS9hck stimulation was already- evident after 2 minutes, reached a maximum after […] and returned to the basal level 30 minutes after the addition of the peptide. No effect on p56/p59hck activity was observed when 0.1 nM of the corresponding scrambled peptide was used in the assay (data not shown). The time-course of the effect is identical to that observed with the addition of ATF or of chymotryptic uPAR fragments to THP-1 cells and reported previously (Resnati et al., 1996).

[1] = system: cells binding to D1(1-92)- or peptide-coated plates; assay: Panning / cell adhesion on coated plastic plates; assay type: cell-based; details: for adhesion of mammalian cells to plastic plates coated with the substance: bacterial-grade plastic dishes coated with the substance; for inhibition of adhesion of cells onto D1(1-92): plates coated with D1(1-92)
Description: However, when those plates are coated with peptide 1 or 2 (or domain D1-1-92) or with recombinant forms of these peptides, they adhere because they express on their surface specific D1(1-92)-binding proteins. The adhesion can be measured.
As a positive control (i.e. to set up the technique), cells (106) exposing a high number of uPAR molecules are used and the panning is carried out on plates coated with a specific anti-uPAR antibody. As a negative control, the same cells but now not expressing uPAR are employed. The cells employed as negative controls are LB6, 32D, 3T3 fibroblasts, B-lymphoid cell lines and others. As positive controls, THP-1 cells, LB6/uPAR, 32D/uPAR and other expressing cell lines are employed.
For the screening assay, the same cells employed as negative controls (106) are used, and the plates are coated with domain D1(1-92) or domain D1(1-87) (control). The ability of the cells to bind to the plates is tested after 30-300 minutes incubation at 37° C. by microscopic inspection, or by staining the plates with Coomassie Blue. The same can be done using different techniques.
The ability of peptides 1- or 2-coated plates to specifically bind the THP-1 cells is the basis for the screening technique, as any compound capable of inhibiting this binding is a potential antiinflammatory agent, inhibiting chemotaxis. […] Such compounds, therefore, can be tested as inhibitors of chemotaxis, employing the methods outlined in examples 1-3. Coating can also be carried out with other recombinant forms of the SRSRY (SEQ ID NO:7) sequence in which the epitope is synthesized in fusion with other proteins. Suitable proteins are ferritin (Sidoli et al. (1993)), thioredoxin, GST, beta galactosidase, human serum albumin.

uPAR = uPAR (Homo sapiens, UniProt Q03405); details: read-out: affinity of binding to uPAR; cited from earlier work
uPAR, sequence (Q03405 23-305): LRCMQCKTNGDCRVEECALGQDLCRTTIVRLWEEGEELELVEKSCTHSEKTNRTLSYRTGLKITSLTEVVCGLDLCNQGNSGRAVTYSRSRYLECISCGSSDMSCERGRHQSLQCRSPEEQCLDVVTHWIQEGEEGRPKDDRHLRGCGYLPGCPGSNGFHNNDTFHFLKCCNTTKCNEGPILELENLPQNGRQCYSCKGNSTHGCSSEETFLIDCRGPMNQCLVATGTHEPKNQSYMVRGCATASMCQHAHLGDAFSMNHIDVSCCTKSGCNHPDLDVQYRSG

With AVTYSRSRYLEC [peptide 1] the “chemotactic response of THP-1 cells” value (THP-1 cells) was “dose-dependent chemotactic effect; also recorded: very potent activity”, the “concentration giving maximal chemotactic response” value (THP-1 cells) was 0.1 pM and the “concentration at which very potent chemotactic activity is seen” value (THP-1 cells) was 0.1 pM. For the same substance, the “time at which p56/p59hck stimulation is already evident” value (p56/p59hck; 0.1 nM peptide) was 2 min, the “autophosphorylation of p56/p59hck” value (p56/p59hck; 0.1 nM peptide, 37° C.) was “increase” and the “phosphorylation of the exogenous substrate (rabbit muscle enolase)” value (p56/p59hck; 0.1 nM peptide, 37° C.) was “increase”. For the same substance, the “time of return of p56/p59hck activity to the basal level” value (p56/p59hck; 0.1 nM peptide, after addition of the peptide) was 30 min, the “adhesion of mammalian cells to plastic plates coated with the substance” value [1] was “adhere” and the “inhibition of adhesion of cells onto D1(1-92)” value (shortened to “inhibition”) [1] was “inhibit adhesion”.
For TLVEYYSRASCR [reference compound], the “chemotactic response of THP-1 cells” value (THP-1 cells) was “no effect on cell migration”, the “chemotactic response of THP-1 cells” value (THP-1 cells; listed as peptide-1 scrambled) was “do not” and the “effect on p56/p59hck activity” value (p56/p59hck; 0.1 nM (data not shown)) was “No effect”. For the same substance, the “inhibition” value [1] was “cannot”.
In the case of “vitronectin: protein bound by uPAR domains D2 and D3”, the Kd (uPAR) is listed as 10 to 20 nM.
With SRSRYLEC [peptide 2] the “chemotactic response of THP-1 cells” value (THP-1 cells) was “dose-dependent chemotactic effect; also recorded: very potent activity”, the “concentration giving maximal chemotactic response” value (THP-1 cells) was 0.1 pM and the “concentration at which very potent chemotactic activity is seen” value (THP-1 cells) was 0.1 pM. For the same substance, the “adhesion of mammalian cells to plastic plates coated with the substance” value [1] was “adhere” and the “inhibition” value [1] was “inhibit adhesion”.
In the case of “YTARLWGGTLLT [peptide 3, reference compound]”, the “chemotactic response of THP-1 cells” value (THP-1 cells) is reported as “no effect on cell migration”.

From US6462170B1, “UPAR mimicking peptide” (Fondazione Centro San Raffaele del Monte Tabor, priority 1997, dated 2002)
